How the values were obtained:
[1] = test system: NMU-induced rat mammary carcinomas; test: NMU-induced mammary tumor model in female rats, 4 weeks treatment; assay type: in vivo, female Sprague-Dawley rats; conditions: for Median tumor weight: 1 mg/kg p.o. daily for 4 weeks (combination 1 + 1 mg/kg), of 10 animals, control 15200, ovariectomy 0; for Tumor growth inhibition compared to control (procentual change of tumor area): 1 mg/kg p.o. each, 4 weeks, Kruskal-Wallis-test
Experimental: Tumors were induced by a single intravenous injection of NMU (50 mg/kg) in female Sprague-Dawley rats (Tierzucht Schönwalde, age 50-55 days). Rats with at least one established tumor with a size of minimal 150 mm^2 were treated for 4 weeks by
1) Solvent control, 2) Ovariectomy (at treatment start), 3) The progesterone receptor antagonist 11β-(4-acetylphenyl)-17β-hydroxy-17α(1,1,2,2,2-pentafluoroethyl)-estra-4,9-dien-3-one, 1 mg/kg p.o., 4) Tamoxifen, 1 mg/kg p.o., 5) The progesterone receptor antagonist 11β-(4-acetylphenyl)-17β-hydroxy-17α(1,1,2,2,2-pentafluoroethyl)-estra-4,9-dien-3-one, 1 mg/kg p.o. and Tamoxifen, 1 mg/kg p.o. daily.
As parameter for growth inhibition the procentual change of tumor area determined by weekly caliper measurements was used. For statistical analysis of intergroup differences of mean values the Kruskal-Wallis-test was used.

[2] = test system: MCF-10 mammary cells with BRCA1 and BRCA2 knock down; test: Growth of MCF-10 mammary cells with siRNA knock down of BRCA1 and BRCA2, stimulated with progesterone and/or estrogens; assay type: cell-based; conditions: co-treatment, in the presence of progesterone
Experimental: MCF-10 mammary cells obtained from ATCC were treated with siRNA knocking down the BRCA1 and BRCA2 gene.
(§1) Cell growth in comparison to untransfected and mock transfected cells was compared. In a second step cells were stimulated either with progesterone and/or with estrogens. […] The effects on progesterone receptor protein expression were further investigated.

progesterone receptor [3] = molecular target: T1, progesterone receptor (Homo sapiens, UniProt P06401); conditions: Fuhrmann et al., J. Med. Chem. 2000; cited from earlier work
T1 sequence (P06401 1-933): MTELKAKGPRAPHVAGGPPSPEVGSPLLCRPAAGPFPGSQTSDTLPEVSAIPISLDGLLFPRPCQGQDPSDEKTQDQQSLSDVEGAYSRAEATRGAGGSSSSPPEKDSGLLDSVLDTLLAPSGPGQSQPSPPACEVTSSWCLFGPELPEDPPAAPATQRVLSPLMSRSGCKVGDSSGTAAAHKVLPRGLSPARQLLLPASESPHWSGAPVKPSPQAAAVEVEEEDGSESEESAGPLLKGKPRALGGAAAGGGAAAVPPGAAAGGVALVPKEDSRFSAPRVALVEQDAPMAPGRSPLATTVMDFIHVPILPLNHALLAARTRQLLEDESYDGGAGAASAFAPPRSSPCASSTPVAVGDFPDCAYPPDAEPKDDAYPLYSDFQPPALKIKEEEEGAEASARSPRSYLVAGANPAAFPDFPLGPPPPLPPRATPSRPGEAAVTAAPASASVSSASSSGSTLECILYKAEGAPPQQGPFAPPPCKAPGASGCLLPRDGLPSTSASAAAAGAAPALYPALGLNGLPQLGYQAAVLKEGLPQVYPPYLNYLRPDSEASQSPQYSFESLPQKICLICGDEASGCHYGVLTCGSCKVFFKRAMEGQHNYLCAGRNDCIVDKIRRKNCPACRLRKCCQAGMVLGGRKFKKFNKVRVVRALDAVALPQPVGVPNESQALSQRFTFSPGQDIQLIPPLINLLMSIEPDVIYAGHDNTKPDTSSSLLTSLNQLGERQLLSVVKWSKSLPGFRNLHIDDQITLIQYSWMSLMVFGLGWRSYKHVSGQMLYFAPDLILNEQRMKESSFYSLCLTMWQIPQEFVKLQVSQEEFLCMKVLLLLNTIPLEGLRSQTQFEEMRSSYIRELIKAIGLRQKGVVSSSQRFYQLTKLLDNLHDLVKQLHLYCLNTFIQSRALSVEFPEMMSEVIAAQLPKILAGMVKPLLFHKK

progesterone receptor [4] = molecular target: T1, progesterone receptor; test: Progesterone receptor protein expression/stability after siRNA knock down of BRCA1; assay type: cell-based
From the text: as §1

[5] = test system: Brca1/p53-deficient mice mammary tumors; conditions: BRCA1- or BRCA2 inactivated in mammary glands; Poole et al., Science 2006; cited from earlier work

| Structure (SMILES) | Median tumor weight [1] [mg] | Tumor growth inhibition compared to control (procentual change of tumor area) [1] | Growth/proliferation of BRCA1 knock down cells [2] | Antiprogestagenic activity (progesterone receptor [3]) | Increased stability of progesterone receptor after BRCA1 knock down (progesterone receptor [4]) | Development of mammary tumors in mice [5] |
| --- | --- | --- | --- | --- | --- | --- |
| CC(=O)c1ccc([C@H]2C[C@@]3(C)[C@@H](CC[C@@]3(O)C(F)(F)C(F)(F)F)[C@@H]3CCC4=CC(=O)CCC4=C32)cc1 [11β-(4-acetylphenyl)-17β-hydroxy-17α-(1,1,2,2,2-pentafluoroethyl)-estra-4,9-dien-3-one] | 1800 | not significant different to the untreated control group | able to antagonize the effects of BRCA1 knock down | high antiprogestagenic activity | could be antagonized |  |
| CC/C(=C(\c1ccccc1)c1ccc(OCCN(C)C)cc1)c1ccccc1 [Tamoxifen, reference compound] | 2950 | not significant different to the untreated control group |  |  |  |  |
| CC#C[C@]1(O)CC[C@H]2[C@@H]3CCC4=CC(=O)CCC4=C3[C@@H](c3ccc(N(C)C)cc3)C[C@@]21C [mifepristone] |  |  |  |  |  | blocks the development of mammary tumors |
